Experimental data as given in US20250073215A1 (priority 2023, published 2025).

What was measured:
BEAS-2B cells = conditions: cited from earlier work
[1] = system: human bronchial epithelial cells (BEAS-2B cells); conditions: in vitro; cited from earlier work
cholinergic receptor = conditions: when interacting with the cholinergic receptor ligand; cited from earlier work
[2] = cited from earlier work

| SMILES | effect on CRP expression compared with nicotine (BEAS-2B cells; BEAS-2B cells) | effect on tumour development and metastasis compared with nicotine (BEAS-2B cells; NF-κB p65, EGFR, MET by immunoblotting and real-time PCR) | cancer-related proteins (CRPs) with differential expression compared with control group (BEAS-2B cells; transcriptome sequencing, BEAS-2B cells) | satisfaction of nicotine craving compared with previously used nicotine products (100 individuals, twice a day for 60 days, participants' opinion) | addictiveness (conclusion of the study) | sensitivity of BEAS-2B cells (cytotoxicity) compared with nicotine [1] | antinociceptive effects (cholinergic receptor) | lethal dose for humans [2] [mg] |
| --- | --- | --- | --- | --- | --- | --- | --- | --- |
| Cc1ccc([C@@H]2CCCN2C)cn1 [(S)-2-Methyl-5-(1-methyl-2-pyrrolidinyl)pyridine] | greater negative effect on CRP expression than nicotine | greater negative effect on tumour development and metastasis than nicotine | 1208 | faster | not addictive | more sensitive | displays antinociceptive effects |  |
| CN1CCC[C@H]1c1cccnc1 [Nicotine, 3-[(2S)-1-methyl-2-pyrrolidinyl]pyridine] |  |  |  |  |  |  |  | 50 to 100 |
